{"source": "patent US20130005019A1", "about": "“GENETICALLY ENCODED PHOTO CONTROL” (North Carolina State University, priority 2010, published 2013)", "molecules": {"B1": {"name": "D-MEK1-ΔN: dead MEK1 with deletion Δ30-49 and mutation K97M (protein, UniProt Q02750 1-393, looked up, variant del30-49 K97M)", "Dual specificity …": "MPKKKPTPIQLNPAPDGSAVNGTSSAETNLEAFLTQKQKVGELKDDDFEKISELGAGNGGVVFKVSHKPSGLVMARMLIHLEIKPAIRNQIIRELQVLHECNSPYIVGFYGAFYSDGEISICMEHMDGGSLDQVLKKAGRIPEQILGKVSIAVIKGLTYLREKHKIMHRDVKPSNILVNSRGEIKLCDFGVSGQLIDSMANSFVGTRSYMSPERLQGTHYSVQSDIWSMGLSLVEMAVGRYPIPPPDAKELELMFGCQVEGDAAETPPRPRTPGRPLSSYGMDSRPPMAIFELLDYIVNEPPPKLPSGVFSLEFQDFVNKCLIKNPAERADLKQLMVHAFIKRSDAEEVDFAGWLCSTIGLNQPSTPTHAAGV", "modifications": "HA tag", "notes": "dead MEK1 with deletion Δ30-49 and mutation K97M"}, "B2": {"name": "D-MEK1-DD: catalytically dead MEK1 mutant with S218D, S222D and K97M (protein, UniProt Q02750 1-393, looked up, variant S218D S222D K97M)", "Dual specificity …": "MPKKKPTPIQLNPAPDGSAVNGTSSAETNLEALQKKLEELELDEQQRKRLEAFLTQKQKVGELKDDDFEKISELGAGNGGVVFKVSHKPSGLVMARMLIHLEIKPAIRNQIIRELQVLHECNSPYIVGFYGAFYSDGEISICMEHMDGGSLDQVLKKAGRIPEQILGKVSIAVIKGLTYLREKHKIMHRDVKPSNILVNSRGEIKLCDFGVSGQLIDDMANDFVGTRSYMSPERLQGTHYSVQSDIWSMGLSLVEMAVGRYPIPPPDAKELELMFGCQVEGDAAETPPRPRTPGRPLSSYGMDSRPPMAIFELLDYIVNEPPPKLPSGVFSLEFQDFVNKCLIKNPAERADLKQLMVHAFIKRSDAEEVDFAGWLCSTIGLNQPSTPTHAAGV", "modifications": "HA tag", "notes": "catalytically dead MEK1 mutant with S218D, S222D and K97M"}}, "key": {"[1]": {"system": "MEK1", "settings": "C-MEK1-ΔN cells, 10 μM U0126 for 30 min before illumination", "experimental": "(a) HEK293ET cells co-transfected with plasmids encoding PCKRS, pyrrolysyl tRNACUA, C-MEK1-ΔN-HA and EGFP-ERK2 (either TEY, lanes 7 and 8; or AAA, lanes 9 and 10) were grown in medium supplemented with 2 mM of amino acid 1 (lanes 8 and 10) or without (lanes 7 and 9) for 24 h. […] (b) HEK293ET cells co-transfected with plasmids encoding PCKRS, pyrrolysyl tRNACUA, EGFP-ERK2 and either A-MEK1-ΔN-HA (lane 2), or D-MEK1-ΔN-HA (lanes 3-6), or C-MEK1-ΔN-HA (lanes 7-10) were grown in medium supplemented with 2 mM of 1 and 0.1% FBS for 24 h. Cells expressing D-MEK1-ΔN-HA and C-MEK1-ΔN-HA were illuminated with a 365 nm LED lamp for 60 s. Cells were lysed 1, 10 and 60 min after illumination. (c) HEK293ET cells co-transfected with plasmids encoding PCKRS, pyrrolysyl tRNACUA, EGFP-ERK2 and either A-MEK1-ΔN-HA (lane 2), or D-MEK1-ΔN-HA (lanes 3, 5, 6, 9, 10, 13, 14, 17, 18) or C-MEK1-ΔN-HA (lanes 4, 7, 8, 11, 12, 15, 16, 19, 20) were grown in medium supplemented with 2 mM of amino acid 1 and 0.1% FBS for 24 h. […]\nImmunoblotting—Cells were washed with ice-cold phosphate buffer saline (PBS), then lysed with ice-cold universal lysis buffer (Roche) supplemented with protease inhibitors cocktail (Roche), 1 mM sodium vanadate, 5 mM sodium fluoride and 10 mM EDTA. Samples were resolved by SDS-PAGE and analyzed by immunoblotting with appropriate antibodies after transferring to nitrocellulose membranes."}, "[2]": {"system": "MEK1", "experimental": "ERK2 nucleocytoplasmic shuttling. (a) HEK293ET cells co-expressing C-MEK1-DD and EGFP-ERK2 were illuminated (2 s, 365 nm, 1 mW/cm^2), then 8 minutes after illumination, U0126 (10 μM) was added to block the activity of photoactivated C-MEK1-DD and unveil EGFP-ERK2 efflux from the nucleus. […] Scale bars represent 5 μm. (b) The graph presents the normalized F(n/c) as a function of time after illumination (mean±SD of ten representative cells). The arrow indicates the time when U0126 was added.\nTo unveil this compensating process and visualize ERK2 nuclear export, we induced EGFP-ERK2 nuclear translocation by C-MEK1-DD photoactivation, and then blocked MEK1-induced ERK2 nuclear translocation by addition of the MEK1 inhibitor U0126.\nLive cell imaging—Live cells grown in μ-Dish (Ibidi) were imaged at room temperature with an inverted Zeiss LSM 710 Laser Scanning Microscope equipped with a Plan Apochromat 63×/1.4 oil immersion objective. […] The mean nuclear (Fn) and cytoplasmic (Fc) fluorescence intensities were quantified using ImageJ software to enable the F(n/c) ratio to be determined according to the formula: F(n/c)=(Fn−Fb)/(Fc−Fb), where Fb is the mean background fluorescence intensity."}, "[3]": {"system": "sfGFP-his6", "assay": "Expression of sfGFP-his6 with unnatural amino acid at amber codon 145", "type": "cell-based, E. coli", "settings": "PCKRS/PyltRNACUA pair, 1 (5 mM), amber codon at position 145", "procedure": "FIG. 3—A. anti His-tag immunoblot of cell extracts from E. coli cells expressing PCKRS/PyltRNACUA and myoglobin with an amber codon at position 4 (pMyo4TAGHis6) in the presence or absence of 1 mM photocaged lysine 1. B. Coomassie stained gel of Ni-NTA purified sfGFP-his6 from cells containing either the MbPylRS/PyltRNACUA pair and grown with ε-Boc-lysine (BocK) (1 mM), or the PCKRS/PyltRNACUA pair and grown with 1 (5 mM). The unnatural amino acid was introduced into sfGFP in response to an amber codon at position 145. […] C. […] A second peak corresponding to myoglobin with a free lysine is also detected (peak B; obtained mass 18396 Da, expected mass 18395.7 Da). […] D. MS/MS fragmentation of tryptic peptide derived from sfGFP(145-1) (the peptide sequence is shown above the spectrum; MH^+ peptide mass 2145.972 Da). The spectrum confirms the incorporation of 1 at codon 145. The fragmentation sites are illustrated above the spectrum. […] E. ESI-MS analysis of myoglobin produced by PCKRS/PyltRNACUA (with 2 mM 1) after photolysis for 0 min, 1 min and 5 min with 365 nm light (A: caged protein mass 18633.0±1.8 Da, expected mass 18631.7 Da; B: uncaged protein mass 18395.4±0.7 Da, expected mass 18395.7).\nTo express myoglobin with an incorporated unnatural amino acid, we transformed E. coli DH10B cells with pBKamp-PCKRS and pMyo4TAGPylT-his6. […]"}, "[4]": {"system": "HEK293 cells", "assay": "Amber suppression of mCherry-TAG-egfp-ha reporter by PCKRS/PyltRNACUA", "type": "cell-based, human", "settings": "PCKRS/PyltRNACUA pair, 1 mM, Western blot, versus hTyrtRNACUA", "procedure": "Adherent human embryonic kidney (HEK)-293 cells were cultured at 37° C. in a 5% CO2 atmosphere in DMEM+GlutaMAX-1 medium (Gibco) supplemented with 10% FBS and 1× pen-strep solution. Cells were transiently transfected with Genejuice (Novagen) according to the manufacturer's protocol. Double transfections were performed using equal amount of both plasmids. Before transfection, medium was replaced by fresh antibiotic-free medium supplemented, when necessary, with the unnatural amino acid (see figure legends for concentrations). Cells were analyzed 24 h after transfection. For western blot analysis, cells were washed with cold PBS, then lysed with universal lysis buffer (Roche) at 4° C. for 10 min. Western Blots were performed using antibodies against HA-tag (Sigma), Flag-tag (Cell signaling), Ds-Red (Clontech) or p53 (Abcam).\nFor imaging cells expressing mCherry-TAG-EGFP-HA, cells were seeded and transfected in 24-well plates. Laser-scanning confocal microscopy was performed using a Bio-Rad Radiance 2100 system mounted on a Nikon Eclipse TE300 inverted microscope equipped with a Plan Fluor ELWD 20×/0.45 objective. Fluorescence emission was measured between 515-530 nm for EGFP (excitation wavelength: 488 nm) and above 560 nm for mCherry (excitation wavelength: 543 nm)."}, "[5]": {"assay": "Decaging of myoglobin containing 1 by 365 nm photolysis, ESI-MS", "type": "physicochemical", "settings": "myoglobin containing 1, in vitro", "procedure": "FIG. 3—A. anti His-tag immunoblot of cell extracts from E. coli cells expressing PCKRS/PyltRNACUA and myoglobin with an amber codon at position 4 (pMyo4TAGHis6) in the presence or absence of 1 mM photocaged lysine 1. B. Coomassie stained gel of Ni-NTA purified sfGFP-his6 from cells containing either the MbPylRS/PyltRNACUA pair and grown with ε-Boc-lysine (BocK) (1 mM), or the PCKRS/PyltRNACUA pair and grown with 1 (5 mM). The unnatural amino acid was introduced into sfGFP in response to an amber codon at position 145. […] C. […] A second peak corresponding to myoglobin with a free lysine is also detected (peak B; obtained mass 18396 Da, expected mass 18395.7 Da). […] D. MS/MS fragmentation of tryptic peptide derived from sfGFP(145-1) (the peptide sequence is shown above the spectrum; MH^+ peptide mass 2145.972 Da). […]\nProtein total mass was determined on an LCT time-of-flight mass spectrometer with electrospray ionization (ESI, Micromass). […] Theoretical masses of wild-type proteins were calculated using Protparam (http://us.expasy.org/tools/protparam.html), and theoretical masses for unnatural amino acid containing proteins were adjusted manually.\nFor the analysis of the uncaging process, purified myoglobin was photolysed at 365 nm with a high power LED source module at 365 nm (Black-led-365, Prizmatix). Protein total mass was then determined as described above."}, "[6]": {"system": "HEK293 cells", "assay": "Photo-control of p53-EGFP nuclear import, live cell imaging", "type": "cell-based, human", "settings": "photolysis 5 s, 365 nm, 1.2 mW/cm^2; amino acid at position 305 of p53", "experimental": "Fluorescence confocal micrographs showing the cellular localization of the EGFP fusions of wild-type p53, p53-K305A. D. Confocal micrographs showing the cellular localization of the EGFP fusions before and 50 min after photolysis (5 s; 365 nm; 1.2 mW/cm^2).\nFor live cell imaging, cells were seeded and transfected in μ-Dish (Ibidi). Live cells were imaged at room temperature with a Zeiss LSM 710 Laser Scanning Microscope equipped with a Plan Apochromat 63×/1.4 oil immersion objective. […] The mean nuclear (Fn) and cytoplasmic (Fc) fluorescence intensities were quantified using ImageJ software to enable the F(n/c) ratio to be determined according to the formula: F(n/c)=(Fn−Fb)/(Fc−Fb), where Fb is the mean background fluorescence intensity."}, "[7]": {"system": "MAP kinase pathway", "assay": "EGFP-ERK2 nuclear translocation upon EGF stimulation", "type": "cell-based, human", "settings": "wild-type MEK1", "procedure": "FIG. 16 EGFP-ERK2 nuclear translocation upon EGF stimulation. (a) Montage showing EGFP-ERK2 sub-cellular fluorescence at different time points after activation of co-expressed wt-MEK1 by addition of 100 ng/ml EGF. Scale bars represent 5 μm.\nWhen cells expressing wild-type MEK1 and EGFP-ERK2 are stimulated with 100 ng/ml of epidermal growth factor (EGF) the entire MAP kinase pathway is activated and EGFP-ERK2 is translocated to the nucleus. […] We observe substantial cell-to-cell variability in both the t1/2 for import and the maximal ratio of nuclear to cytoplasmic EGFP-ERK2, and, as previously reported (Cohen-Saidon et al., 2009), we observe less variability in the timing of nuclear import than in the fraction of ERK2 in the nucleus following stimulation (Cohen-Saidon et al., 2009) (FIG. 16c,d). The nuclear accumulation of EGFP-ERK2 peaks and then dissipates to pre-stimulus levels, a well known effect in cellular systems known as exact adaptation (Cohen-Saidon et al., 2009). This effect is not understood in molecular detail for EGF signalling, but must involve cellular processes that compensate for EGF stimulation at some—as yet undefined—point or points in the pathway. […]"}, "[8]": {"system": "EGFP-ERK2", "assay": "EGFP-ERK2 nuclear translocation upon photo-activation of caged MEK1, live cell imaging", "type": "cell-based, human", "settings": "resting cells co-expressing EGFP-ERK2, illuminated", "procedure": "Cell culture and transfection—Human embryonic kidney 293ET cells were grown at 37° C. in 5% CO2 atmosphere in DMEM+GlutaMAX-1 medium (Gibco) supplemented with 10% fetal bovine serum (FBS) and 1× pen-strep solution for 24 hours before transfection. Cells were transiently transfected with Genejuice (Novagen) according to the manufacturer's protocol. Cells were serum-starved (DMEM with 0.1% FBS) and grown with 2 mM of the photocaged lysine 1 for 24 h before analysis. Growth medium was replaced with fresh 1-free DMEM supplemented with 0.1% FBS before photo-activation experiments."}, "[9]": {"system": "EGFP-ERK2 and endogenous ERK1/2", "assay": "Immunoblot of ERK, p90RSK and Elk-1 phosphorylation upon photo-activation of caged MEK1", "type": "cell-based, human", "text": "MEK1 is highly specific for the downstream extracellular signal-regulated protein kinases ERK1 and ERK2, and has no other known substrates (Shaul and Seger, 2007). MEK1 phosphorylates two regulatory residues in ERK1/2, a threonine and a tyrosine, both part of a conserved Thr-Glu-Tyr (TEY) motif (Payne et al., 1991). To verify that the introduction of the photocaged lysine 1 prevents kinase activity, C-MEK1-ΔN was co-expressed with ERK2 fused to an enhanced green fluorescence protein (EGFP-ERK2) in resting HEK293ET cells.\nTo activate C-MEK1-ΔN we illuminated cells producing the protein for one minute using a 365 nm light-emitting diode (LED) lamp placed underneath the culture plate. This method allows us to illuminate a sufficient number of cells for western blot analysis with monochromatic light that avoids sample heating. […] We observed more phosphorylated EGFP-ERK2 than phosphorylated endogenous ERK1/2. This is consistent with the fact that only a subset of cells contain EGFP-ERK2 and C-MEK1-ΔN, via transfection, while essentially all cells contain endogenous ERK1/2. […] EGFP-ERK2 levels in transfected cells are lower-than or equal to that of the endogenous ERKs. […]"}}, "note": "Where a name gives a salt, the structure may show the parent alone.", "data": [{"molecule": "N#CC(=C(/N)Sc1ccccc1N)/C(C#N)=C(\\N)Sc1ccccc1N", "note": "[U0126]", "values": [{"measurement": "increase of endogenous phosphorylated p90RSK and Elk-1 after illumination", "setting": "[1]", "value": "not observed"}, {"measurement": "t1/2 of loss of EGFP nuclear fluorescence", "setting": "[2]; 10 μM added 8 min after C-MEK1-DD photoactivation", "value": "< 3", "unit": "min"}, {"measurement": "effect on EGFP-ERK2 nuclear accumulation", "setting": "[2]; 10 μM added before illumination, C-MEK1-DD cells", "value": "significantly blocked nuclear accumulation"}]}, {"molecule": "CC(OC(=O)NCCCC[C@H](N)C(=O)O)c1cc2c(cc1[N+](=O)[O-])OCO2", "note": "(stereo partly drawn) [compound 1, (2S)-2-Amino-6-{([1-(6-nitrobenzo[d][1,3]dioxol-5-yl)ethoxy]carbonylamino}hexanoic acid TFA salt]", "values": [{"measurement": "yield of sfGFP-his6 obtained by incorporation", "setting": "[3]", "value": 1, "unit": "mg/L"}, {"measurement": "efficiency of incorporation", "setting": "[4]", "value": "comparable to the efficiency of incorporation of tyrosine"}, {"measurement": "decaging upon irradiation with 365 nm light", "setting": "[5]", "value": "efficiently decaged"}]}, {"molecule": "N[C@@H](Cc1ccc(O)cc1)C(=O)O", "note": "[tyrosine]", "values": [{"measurement": "p53 localization following photolysis", "setting": "[6]", "value": "did not localize to the nucleus"}]}, {"molecule": "EGF: Recombinant human epidermal growth factor, purchased from Gibco", "values": [{"measurement": "lag phase prior to rapid nuclear accumulation of EGFP-ERK2", "setting": "[7]; 100 ng/ml EGF", "value": 3, "unit": "min"}, {"measurement": "t1/2 of EGFP-ERK2 nuclear translocation", "setting": "[7]; EGF-stimulated activation of the whole pathway, 100 ng/ml", "value": 4.5, "unit": "min"}]}, {"molecule": "wt-MEK1: wild-type MEK1 [reference compound]", "values": [{"measurement": "EGFP-ERK2 nuclear translocation upon illumination", "setting": "[8]", "value": "no nuclear translocation was observed"}]}, {"molecule": "B1", "values": [{"measurement": "phosphorylation of EGFP-ERK2 or endogenous ERK1/2 after illumination", "setting": "[9]; 365 nm LED illumination", "value": "no detectable phosphorylation"}, {"measurement": "endogenous phosphorylated p90RSK and Elk-1 after illumination", "setting": "[9]; resting cells co-expressing EGFP-ERK2, 60 s 365 nm", "value": "not observed"}]}, {"molecule": "B2", "values": [{"measurement": "EGFP-ERK2 nuclear translocation upon illumination", "setting": "[8]", "value": "no nuclear translocation was observed"}]}]}
